Patent US20230364273A1, “AGENT FOR DETECTING INTERACTION BETWEEN TISSUES AND ORGANS” (HAMAMATSU PHOTONICS K.K., priority 2020, published 2023)

Test system: mitochondrial complex I (MC-I)
Assay: PET measurement of the amount (SUV) of MC-I probe accumulated in each tissue and organ of type 2 diabetes model rats (Test Examples 1 and 2)
Assay type: in vivo
Conditions: brain, heart, brown adipocytes, pancreas, liver, kidneys; 5, 8, 16, 26 weeks of age; i.v. about 20 MBq; except brown adipocytes and kidneys at 5 weeks of age (FIG. 4)
Source text: Male Zucker Leprfa/Leprfa rats (hereinafter also referred to as “fatty rats”) that develop pathological conditions similar to type 2 diabetes of human adults and male Zucker Leprfa/+ rats (hereinafter also referred to as “lean rats”) as controls thereof were purchased from Charles River Laboratories Japan, Inc., and used for PET measurement at 5, 8, 16, and 26 weeks of age, and the amount of [^18F]BCPP-BF accumulated in each tissue and organ (brain, heart, kidneys, liver, and brown adipocytes (brown adipose tissue)) was measured.
The rats were anesthetized with isoflurane and fixed in a gantry of an animal PET camera (SHR-38000, manufactured by Hamamatsu Photonics K.K.). […]
After the completion of the PET measurement, a region of interest was set on the pancreas identified by an integrated PET image 40 to 60 minutes after the administration of D-[^11C]MT, and the amount of [^18F]BCPP-BF accumulated in the region of interest was calculated. Subsequently, the calculated accumulation amount was normalized by the amount of radioactivity administered and the body weight of each individual and defined as an amount (amount (SUV) of radioactivity accumulated) of [^18F]BCPP-BF accumulated in the pancreas. […] The amount (SUV) of radioactivity accumulated in the brain was calculated by excising the brains from the rats immediately after the PET measurement. […]

## CC(C)(C)n1ncc(OCc2ccc(OCCCC[18F])nc2)c(Cl)c1=O [[^18F]BCPP-BF]
  accumulation amount (SUV) in each tissue and organ, fatty rats versus lean rats: significantly lower
